Like-named read-outs stand apart in the source and are kept apart here. Non-standard residues stand in square brackets, D forms with d. Residues, ends and D or L forms follow the SMILES beside them. *: point of attachment. DOTA = O=C(O)CN1CCN(CC(=O)O)CCN(CC(=O)*)CCN(CC(=O)O)CC1; 1Nal = N[C@@H](Cc1cccc2ccccc12)C(=O)O; NMeNle = CCCC[C@H](NC)C(=O)O
Test: biodistribution in A431-CCK2R/A431-mock xenografted BALB/c nude mice
Type: in vivo
Settings: female, athymic BALB/c nude, mouse, iv, total radioactivity; for tissue to tissue ratio at 4 h / tissue uptake at 4 h: 4 h p.i.; for tissue uptake at 12 h / tissue to tissue ratio at 12 h: 12 h p.i.
Experimental: Biodistribution studies evaluating the tumor uptake of the radiolabeled peptides were performed in 7- to 9-week-old female athymic BALB/c nude mice (Charles River, Sulzfeld, Germany). For the induction of tumor xenografts, 150 μL of DMEM containing 2 × 10^6 A431-CCK2R and A431-mock cells were injected subcutaneously in the right and left flank of each mouse, respectively. And 10–14 days after injection, tumors reached a medium weight of ∼0.25 g. The mice were divided into groups of four and injected intravenously via a lateral tail vein with 0.2 MBq of ^111In-labeled compound (0.02 nmol) and 0.7 and 1.5 MBq of the ^177Lu-labeled compound (0.02 and 0.15 nmol). At 4 and 12 h p.i., the mice were sacrificed and the tumors and other tissues (blood, lung, heart, muscle, spleen, intestine, liver, kidneys, stomach, and pancreas) were removed, weighed, and their radioactivity measured in the γ counter together with the rest of the body. Initial biodistribution studies were performed with the three ^177Lu-labeled CCK2R-targeting ligands at an injected peptide amount of 20 pmol for the time point of 4 h p.i. From these studies, two peptide analogues were selected to further characterize the biodistribution profile also at a later time point of 12 h p.i. and at a higher injected peptide amount of 150 pmol. Additional animal studies were performed for the ^111In-labeled conjugates. Percentage of injected activity per gram tissue (%IA/g), tumor-to-organ activity ratios, as well as whole body activity were calculated for each sample and statistical analysis using independent two-population t-test (significance level p < 0.05) was performed using Origin software. For the comparison of more than two groups, data were analyzed using one-way analysis of variance (ANOVA) Holm–Bonferroni-adjusted post hoc analysis (significance level p < 0.05) using Microsoft Excel 2010 software (Microsoft Excel 2010, Microsoft Corporation, WA).

[1] = A431-CCK2R xenograft tumor / blood, 20 pmol, 20 pmol, read-out: tumor-to-blood ratio
[2] = A431-CCK2R xenograft tumor / kidney, 20 pmol, 20 pmol, read-out: tumor-to-kidney ratio
[3] = A431-CCK2R xenograft tumor / liver, 20 pmol, 20 pmol, read-out: tumor-to-liver ratio
[4] = A431-CCK2R xenograft tumor / stomach, 20 pmol, 20 pmol, read-out: tumor-to-stomach ratio
[5] = A431-CCK2R xenograft tumor, 20 pmol, 20 pmol, read-out: tumor uptake in A431-CCK2R xenografts
[6] = A431-CCK2R xenograft tumor, 150 pmol, 150 pmol, read-out: tumor uptake in A431-CCK2R xenografts
[7] = A431-mock xenograft tumor, 20 pmol, 20 pmol, read-out: uptake in A431-mock xenografts
[8] = blood, 20 pmol, 20 pmol, read-out: uptake in blood
[9] = heart, 20 pmol, 20 pmol, read-out: uptake in heart
[10] = intestine, 20 pmol, 20 pmol, read-out: uptake in intestine
[11] = intestine, 150 pmol, 150 pmol, read-out: uptake in intestine
[12] = kidney, 20 pmol, 20 pmol, read-out: uptake in kidney
[13] = kidney, 150 pmol, 150 pmol, read-out: uptake in kidney
[14] = liver, 20 pmol, 20 pmol, read-out: uptake in liver
[15] = liver, 150 pmol, 150 pmol, read-out: uptake in liver
[16] = lung, 20 pmol, 20 pmol, read-out: uptake in lung
[17] = lung, 150 pmol, 150 pmol, read-out: uptake in lung
[18] = muscle, 20 pmol, 20 pmol, read-out: uptake in muscle
[19] = muscle, 150 pmol, 150 pmol, read-out: uptake in muscle
[20] = pancreas, 20 pmol, 20 pmol, read-out: uptake in pancreas
[21] = pancreas, 150 pmol, 150 pmol, read-out: uptake in pancreas
[22] = spleen, 20 pmol, 20 pmol, read-out: uptake in spleen
[23] = stomach, 20 pmol, 20 pmol, read-out: uptake in stomach
[24] = stomach, 150 pmol, 150 pmol, read-out: uptake in stomach
[25] = tumor/blood, 20 pmol, 20 pmol, read-out: tumor-to-blood ratio
[26] = tumor/blood, 150 pmol, 150 pmol, read-out: tumor-to-blood ratio
[27] = tumor/kidney, 20 pmol, 20 pmol, read-out: tumor-to-kidney ratio
[28] = tumor/kidney, 150 pmol, 150 pmol, read-out: tumor-to-kidney ratio
[29] = tumor/liver, 20 pmol, 20 pmol, read-out: tumor-to-liver ratio
[30] = tumor/liver, 150 pmol, 150 pmol, read-out: tumor-to-liver ratio
[31] = tumor/stomach, 20 pmol, 20 pmol, read-out: tumor-to-stomach ratio
[32] = tumor/stomach, 150 pmol, 150 pmol, read-out: tumor-to-stomach ratio

CCCC[C@@H](C(=O)N[C@@H](CC(=O)O)C(=O)N[C@@H](Cc1cccc2ccccc12)C(N)=O)N(C)C(=O)[C@H](Cc1c[nH]c2ccccc12)NC(=O)CNC(=O)[C@H](Cc1ccc(O)cc1)NC(=O)[C@@H]1CCCN1C(=O)[C@@H](CCC(=O)O)NC(=O)CN1CCN(CC(=O)O)CCN(CC(=O)O)CCN(CC(=O)O)CC1 [[^177Lu]Lu-1, metal not drawn] ({DOTA}-[dE]PYGW[NMeNle]D[1Nal]-NH2)
tissue to tissue ratio at 4 h [1]: 540 ± 103
tissue to tissue ratio at 4 h [2]: 10
tissue to tissue ratio at 4 h [3]: 83.3 ± 23
tissue to tissue ratio at 4 h [4]: 5
tissue uptake at 4 h [5]: 34.7 ± 9.4 %ID/g
tissue uptake at 12 h [5]: 23.4 ± 8.64 %ID/g
tissue uptake at 4 h [6]: 16.7 ± 1.48 %ID/g
tissue uptake at 4 h [7]: 0.32 ± 0.14 %ID/g
tissue uptake at 12 h [7]: 0.11 ± 0.02 %ID/g
tissue uptake at 4 h [8]: 0.07 ± 0.02 %ID/g
tissue uptake at 12 h [8]: 0.01 %ID/g
tissue uptake at 4 h [9]: 0.09 ± 0.01 %ID/g
tissue uptake at 12 h [9]: 0.05 ± 0.01 %ID/g
tissue uptake at 4 h [10]: 1.14 ± 0.51 %ID/g
tissue uptake at 12 h [10]: 0.24 ± 0.02 %ID/g
tissue uptake at 4 h [11]: 0.61 ± 0.13 %ID/g
tissue uptake at 4 h [12]: 3.97 ± 1.31 %ID/g
tissue uptake at 12 h [12]: 3.12 ± 1.05 %ID/g
tissue uptake at 4 h [13]: 4.04 ± 0.82 %ID/g
tissue uptake at 4 h [14]: 0.42 ± 0.06 %ID/g
tissue uptake at 12 h [14]: 0.32 ± 0.09 %ID/g
tissue uptake at 4 h [15]: 0.49 ± 0.12 %ID/g
tissue uptake at 4 h [16]: 0.14 ± 0.05 %ID/g
tissue uptake at 12 h [16]: 0.11 ± 0.07 %ID/g
tissue uptake at 4 h [17]: 0.15 ± 0.07 %ID/g
tissue uptake at 4 h [18]: 0.06 ± 0.05 %ID/g
tissue uptake at 12 h [18]: 0.02 ± 0.01 %ID/g
tissue uptake at 4 h [19]: 0.05 ± 0.03 %ID/g
tissue uptake at 4 h [20]: 2.09 ± 0.84 %ID/g
tissue uptake at 12 h [20]: 0.76 ± 0.13 %ID/g
tissue uptake at 4 h [21]: 0.35 ± 0.06 %ID/g
tissue uptake at 4 h [22]: 0.18 ± 0.04 %ID/g
tissue uptake at 12 h [22]: 0.13 ± 0.03 %ID/g
tissue uptake at 4 h [23]: 7.37 ± 2.26 %ID/g
tissue uptake at 12 h [23]: 4.18 ± 0.72 %ID/g
tissue uptake at 4 h [24]: 1.26 ± 0.5 %ID/g
tissue to tissue ratio at 12 h [25]: 2440 ± 1780
tissue to tissue ratio at 4 h [26]: 294 ± 137
tissue to tissue ratio at 12 h [27]: 8.14 ± 4.06
tissue to tissue ratio at 4 h [28]: 4.25 ± 0.88
tissue to tissue ratio at 12 h [29]: 76.8 ± 34.4
tissue to tissue ratio at 4 h [30]: 35.9 ± 9.9
tissue to tissue ratio at 12 h [31]: 5.54 ± 1.44
tissue to tissue ratio at 4 h [32]: 14.9 ± 5.6

CCCC[C@@H](C(=O)N[C@@H](CC(=O)O)C(=O)N[C@@H](Cc1cccc2ccccc12)C(N)=O)N(C)C(=O)[C@H](Cc1c[nH]c2ccccc12)NC(=O)CNC(=O)[C@@H]1CCCN1C(=O)[C@H](Cc1ccc(O)cc1)NC(=O)[C@@H](CCC(=O)O)NC(=O)CN1CCN(CC(=O)O)CCN(CC(=O)O)CCN(CC(=O)O)CC1 [[^177Lu]Lu-2, metal not drawn] ({DOTA}-[dE]YPGW[NMeNle]D[1Nal]-NH2)
tissue to tissue ratio at 4 h [1]: 429 ± 134
tissue to tissue ratio at 4 h [2]: 6.51 ± 2.29
tissue to tissue ratio at 4 h [3]: 80.6 ± 26.5
tissue to tissue ratio at 4 h [4]: 7.31 ± 1.84
tissue uptake at 4 h [5]: 33.2 ± 6.34 %ID/g
tissue uptake at 12 h [5]: 25 ± 4.92 %ID/g
tissue uptake at 4 h [6]: 17.2 ± 5.98 %ID/g
tissue uptake at 4 h [7]: 0.25 ± 0.06 %ID/g
tissue uptake at 12 h [7]: 0.15 ± 0.03 %ID/g
tissue uptake at 4 h (A431-mock xenograft tumor, 150 pmol, 150 pmol, read-out: uptake in A431-mock xenografts): 0.33 ± 0.05 %ID/g
tissue uptake at 4 h [8]: 0.08 ± 0.01 %ID/g
tissue uptake at 12 h [8]: 0.01 %ID/g
tissue uptake at 4 h (blood, 150 pmol, 150 pmol, read-out: uptake in blood): 0.09 ± 0.01 %ID/g
tissue uptake at 4 h [9]: 0.09 ± 0.01 %ID/g
tissue uptake at 12 h [9]: 0.05 ± 0.01 %ID/g
tissue uptake at 4 h (heart, 150 pmol, 150 pmol, read-out: uptake in heart): 0.15 ± 0.05 %ID/g
tissue uptake at 4 h [10]: 0.56 ± 0.1 %ID/g
tissue uptake at 12 h [10]: 0.19 ± 0.02 %ID/g
tissue uptake at 4 h [11]: 0.55 ± 0.08 %ID/g
tissue uptake at 4 h [12]: 5.53 ± 1.51 %ID/g
tissue uptake at 12 h [12]: 3.37 ± 0.17 %ID/g
tissue uptake at 4 h [13]: 7.88 ± 1.26 %ID/g
tissue uptake at 4 h [14]: 0.43 ± 0.08 %ID/g
tissue uptake at 12 h [14]: 0.27 ± 0.03 %ID/g
tissue uptake at 4 h [15]: 0.79 ± 0.19 %ID/g
tissue uptake at 4 h [16]: 0.17 ± 0.01 %ID/g
tissue uptake at 12 h [16]: 0.08 ± 0.01 %ID/g
tissue uptake at 4 h [17]: 0.25 ± 0.04 %ID/g
tissue uptake at 4 h [18]: 0.06 ± 0.03 %ID/g
tissue uptake at 12 h [18]: 0.02 %ID/g
tissue uptake at 4 h [19]: 0.1 ± 0.09 %ID/g
tissue uptake at 4 h [20]: 1.21 ± 0.49 %ID/g
tissue uptake at 12 h [20]: 0.82 ± 0.06 %ID/g
tissue uptake at 4 h [21]: 0.73 ± 0.55 %ID/g
tissue uptake at 4 h [22]: 0.16 ± 0.01 %ID/g
tissue uptake at 12 h [22]: 0.13 ± 0.01 %ID/g
tissue uptake at 4 h (spleen, 150 pmol, 150 pmol, read-out: uptake in spleen): 0.28 ± 0.08 %ID/g
tissue uptake at 4 h [23]: 4.68 ± 0.93 %ID/g
tissue uptake at 12 h [23]: 4.12 ± 0.82 %ID/g
tissue uptake at 4 h [24]: 1.02 ± 0.45 %ID/g
tissue to tissue ratio at 12 h [25]: 2000 ± 750
tissue to tissue ratio at 4 h [26]: 188 ± 80
tissue to tissue ratio at 12 h [27]: 7.41 ± 1.33
tissue to tissue ratio at 4 h [28]: 2.23 ± 0.87
tissue to tissue ratio at 12 h [29]: 131 ± 37
tissue to tissue ratio at 4 h [30]: 22.8 ± 10
tissue to tissue ratio at 12 h [31]: 6.15 ± 1.12
tissue to tissue ratio at 4 h [32]: 12.7 ± 4.9

Reference: publication PMC7734625, “Stabilization Strategies for Linear Minigastrin Analogues: Further Improvements via the Inclusion of Proline into the Peptide Sequence” (Journal of Medicinal Chemistry, 2020)
